Source: paper PMC6050537, “Inhibition of low-density lipoprotein receptor degradation with a cyclic peptide that disrupts the homodimerization of IDOL E3 ubiquitin ligase” (Chemical Science, 2018)
Residues, ends and D or L forms follow the SMILES beside them.

Legend:
RING domain of IDOL = test system: T1, RING domain of IDOL; assay: 1H 15N HSQC NMR binding to RING domain
T1 construct: IDOL RING domain (G356-I445) was expressed as TEV cleavable N-terminal HN6-Lysine-Tag; HN6-Lysine-Tag (TEV-cleavable) (N); made in house; host or cells: E. coli (pET vector)
Excerpt: (§1) The lead candidates, cyclo-CTIFLL and cyclo-CFFLYT, were next analyzed for binding to the RING domain of IDOL by ^1H ^15N HSQC NMR. We also assessed the binding of each peptide to the FERM domain of IDOL as a negative control. […] It should be noted that the 3 residues affected by cyclo-CFFLYT (named RINGPep1) form part of the PPI interface in the crystal structure of the homodimerized RING domains of IDOL (Fig. 1c and ESI Fig. 6 ^†).[15] Furthermore, mutation of V431R coupled with a L433R mutation is known to result in a dimer deficient IDOL.[15]
(§2) ^15N-labeled RING and FERM domains were prepared for NMR experiments by buffer exchange using Amicon Ultra-4 Centrifugal Filter Units with 3 kDa molecular weight cut-off membranes. Buffer conditions for the NMR studies were 50 mM TRIS-d11 pH 7.5, 200 mM NaCl, 3 mM TCEP, 10% (v/v) D2O for the RING domain and 25 mM TRIS-d11, 25 mM NaPi, pH 7.5, 300 mM NaCl, 3 mM TCEP, 10% (v/v) D2O for the FERM domain. The protein concentrations were 80 μM and 70 μM, for the RING and FERM domain respectively. Two-dimensional NMR SOFAST-HMQC titration experiments were carried out on a Bruker 600 MHz spectrometer equipped with a cryoprobe. […]

[1] = molecular target: T2, 6× His-tagged, full-length IDOL (Homo sapiens, UniProt Q8WY64); assay: Surface plasmon resonance (SPR) affinity for IDOL; assay type: binding; conditions: SPR, immobilized full-length His-IDOL; saturation at highest concentrations not observed; read-out: Kd
T2 construct: Full length IDOL (1–445) was cloned with a TEV cleavable N-terminal 6xHis tag; made in house; host or cells: Spodoptera frugiperda Sf21 (baculovirus, pFastbac1)
T2 sequence (Q8WY64 1-445): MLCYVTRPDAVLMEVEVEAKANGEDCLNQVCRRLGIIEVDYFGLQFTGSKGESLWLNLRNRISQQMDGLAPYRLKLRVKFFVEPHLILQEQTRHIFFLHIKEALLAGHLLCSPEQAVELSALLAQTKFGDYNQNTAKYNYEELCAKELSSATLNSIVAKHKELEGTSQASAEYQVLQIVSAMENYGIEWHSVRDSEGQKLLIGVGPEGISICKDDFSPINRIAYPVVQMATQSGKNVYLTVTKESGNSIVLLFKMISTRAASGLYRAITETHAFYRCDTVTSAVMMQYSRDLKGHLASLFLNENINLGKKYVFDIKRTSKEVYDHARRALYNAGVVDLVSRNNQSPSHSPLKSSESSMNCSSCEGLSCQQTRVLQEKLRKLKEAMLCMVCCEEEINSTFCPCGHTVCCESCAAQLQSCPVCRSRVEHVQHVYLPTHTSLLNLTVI
Excerpt: We initially assessed the affinity of the 6 selected cyclic peptides for IDOL by surface plasmon resonance (SPR). Although saturation at the highest concentrations was not observed, due to hydrophobic effects, Kd values could be determined for five peptides (Table 1). […] The hit rate for our IDOL screen is in line with that for previous SICLOPPS screens.[21],[25] It should be noted that although cyclo-CTIFLL and cyclo-CTLILF contain the same amino acids, changing the order in which these are arranged results in activity loss.
All measurements were performed on a Biacore S200 (GE healthcare) using running buffer 10 mM HEPES, 300 mM NaCl, 1 mM TCEP, 0.05% Tween 20 and 4% DMSO at pH 8.0. In brief, 6× His-tagged, full-length IDOL was immobilized on a NTA-chip (Xantec), to a final level of ∼6000 RU. The chip was pre-loaded with Ni^2+ to facilitate efficient capture of His-tagged protein onto the chip. The activity of the immobilized protein was confirmed using a reference compound.
Supplementary Figure 2. […] Saturation of binding was not observed due to the hydrophobic nature of the peptides
(1 picture or pasted object on this page, not shown here)

[2] = test system: IDOL homodimerization (434-IDOL fusion) in IDOL RTHS; assay: IDOL bacterial reverse two-hybrid system (RTHS) drop-spotting; assay type: cell-based, E. coli; conditions: SICLOPPS-encoded peptide, IPTG 25 μM plus arabinose
Excerpt: We used a previously reported genetically encoded high-throughput screening platform that combines a bacterial reverse two-hybrid system (RTHS)[21],[23]–[25] with a plasmid-encoded library of 3.2 million cyclic hexapeptides using split intein circular ligation of peptides and proteins (SICLOPPS).[26],[27] We began by constructing a bacterial RTHS for IDOL homodimerization. IDOL is expressed as an N-terminal fusion with the 434 bacteriophage repressor, with the 38 amino acid disordered region of the 434 repressor acting as linker. IDOL homodimerization is expected to bring together two 434 proteins to form a functional repressor that binds to the operator sites engineered onto the E. coli chromosome, and prevent the expression of 3 genes downstream that are required for growth and survival on selective media (Fig. 1a). We verified the formation of a functional repressor and suppression of growth on selective media upon IDOL homodimerization by drop-spotting (Fig. 1b), and by ONPG assay (ESI Fig. 1 ^†) as previously detailed.[21] A SICLOPPS CXXXXX library (where X = any canonical amino acid) was prepared as previously detailed[28] and transformed into the IDOL RTHS prior to plating on selective media. After incubation of the selection plates for 48 h, 480 surviving colonies were picked and individually assessed for arabinose-dependent survival on selective media by drop-spotting. […]

FERM domain of IDOL = test system: T3, FERM domain of IDOL; assay: 1H 15N HSQC NMR binding to FERM domain (negative control)
T3 construct: made in house; host or cells: E. coli BL21
Excerpt: as §1, §2

Q: How did the “chemical shift changes, RING domain of IDOL” value (RING domain of IDOL) turn out when CC(C)C[C@@H]1NC(=O)[C@H](Cc2ccccc2)NC(=O)[C@H](Cc2ccccc2)NC(=O)[C@H](CS)NC(=O)[C@H]([C@@H](C)O)NC(=O)[C@H](Cc2ccc(O)cc2)NC1=O [RINGPep1, cyclo-CFFLYT] (HELM PEPTIDE1{C.F.F.L.Y.T}$PEPTIDE1,PEPTIDE1,1:R1-6:R2$$$V2.0) was run?
A: modest chemical shift changes for 3 amino acids

Q: What about the Kd [1] of the same compound?
A: 38.5 ± 34.8 µM

Q: And the “growth of IDOL RTHS on selective media” value [2]?
A: restored

Q: What about the “chemical shift changes, FERM domain of IDOL” value (FERM domain of IDOL) of the same compound?
A: No changes
